Measurements as given in ChEMBL document CHEMBL1133259, “Polymethylcarborane as a novel bioactive moiety: derivatives with potent retinoid antagonistic activity” (Bioorg Med Chem Lett, 2000).

System: HL-60
Assay: Inhibitory concentration which reduces half the percentage of differentiated HL-60 cells induced by 1x 10 e-9 M Am80
Assay type: functional, cell-based
Settings: Homo sapiens

SMILES: CN1c2cc3c(cc2N=C(c2ccc(C(=O)O)cc2)c2ccc4ccccc4c21)C(C)(C)CCC3(C)C
- IC50: 17 nM
